From patent US8680253B2 (OliPass Corporation, priority 2008, dated 2014) come the findings set out here.

One data set relates to complementary DNA. Briefly: Binding affinity for DNA: Tm between PNA and complementary DNA (UV absorbance at 260 nm). Particulars: 4 μM PNA oligomer and 4 μM DNA, aq buffer pH 7.16, 10 mM sodium phosphate, 100 mM NaCl. On the procedure: (§1) PNA oligomers of this invention were evaluated for their binding affinity for DNA by measuring Tm values as follows.
(§2) 4 μM PNA oligomer and 4 μM DNA were mixed in aq buffer (pH 7.16, 10 mM sodium phosphate, 100 mM NaCl), and incubated at 90° C. for a few minutes and slowly cooled down to RT. Then the solution was transferred into a 4 ml quartz cuvette and the cuvette was tightly sealed. The cuvette was mounted on an Agilent 8453 UV/Visible spectrophotometer and absorbance changes at 260 nm were recorded with increasing the temperature of the cuvette by either 0.5 or 1.0° C. per minute. From the absorbance vs temperature curve, the temperature showing the largest increase rate in absorbance was read out as the melting temperature Tm between PNA and DNA. DNAs for Tm measurement were purchased either from Bioneer, Inc. (www.bioneer.com, Daejon, South Korea) or from Ahram Biosystems (www.ahrambio.com, Seoul, South Korea), and used without further purification.
(§3) FIG. 3 provides graphs of absorbance changes with temperature for Oligo 17 against complementary or mismatch DNA. For sequences of the mismatch DNAs against Oligo 17, refer to Table 2. In FIG. 3, there is a transition temperature in each curve, which was read out as the Tm value for the curve.
(§4) Tm values are provided in Table 2 for PNA oligomers of this invention. These Tm values are presented for illustrative purposes only and should not be interpreted as a restriction to this invention.

The subject of the next data set is mdm2. Briefly: Antisense example: inhibition of ribosomal synthesis of mdm2 in JAR cells, western blotting. Particulars: 15 h. Type of data set: cell-based, human. How it is done:
The following antisense example is presented for illustrative purposes only and should not be interpreted as a restriction to the present invention.
JAR cells (ATCC catalog #HTB-144) were grown in RPMI-1640 medium supplemented with 10% FBS and 1% penicillin-streptomycin at 37° C. and 5% CO2. Cells were then seeded into each well of a 12-well plate containing 1 ml of the same medium, and treated with an aliquot of an aqueous stock solution of Oligo 9 or […] of a designated concentration. Then the cells were incubated at 37° C. and 5% CO2 for 15 h.
The cells in each well were washed with cold PBS and treated with 80 μl RIPA buffer containing 1% protease inhibitors cocktail, and the plate was incubated at 4° C. and agitated slowly for 15 min. The content of each well was scraped out into a microtube. The microtube was incubated in ice for 10 min and centrifuged at 10,000 g. The resulting supernatant was collected and subjected to protein quantification by Bradford assay and western blot analysis. For electrophoresis, 20 μg of protein was loaded onto each lane of the gel in a minigel apparatus, separated and transferred onto a PVDF membrane (0.45μ, Millipore). The primary mdm2 antibody used for western blotting was SC-965 (Santa Cruz Biotechnology).
FIG. 9 provides western blotting results for JAR cells treated with 5 μM or 10 μM Oligo 9, 5 μM or 10 μM Oligo 10, cotreatment with the oligomers at 5 μM or 10 μM each, and blank (no oligomer treatment).
For orientation: A western blot detects proteins with antibodies after separation by electrophoresis.

The test system of the next data set is A549 cells. Briefly: Cell penetration of fluorescein-tagged PNA oligomers, confocal fluorescence microscopy. Type of data set: cell-based, human. Conditions: 2 μM, 24 h, without FBS, 40× objective. How it is done:
(§5) In order to evaluate the cell penetration ability of PNA oligomers of this invention, cancer cells of human origin were treated with PNA oligomers covalently tagged with fluorescein. The applied method is provided in brief as follows.
(§6) To each cover glass (autoclaved) placed in each well of a 24-well plate, were seeded 20,000˜100,000 cells depending on the growth rate of the cell line used, and the cells were cultured at 37° C. and 5% CO2 for 16 to 24 h. Then the medium was replaced with 500 μl fresh Opti-MEM medium (with or without 1% FBS), to which was added an aliquot of aq stock solution of a PNA oligomer covalently tagged with fluorescein. After cells were cultured for a designated interval, the cells were washed with PBS, and fixed by incubating in 3.7% or 4% paraformaldehyde. The cells were thoroughly washed several times with PBS or PBS containing 0.1% Tween-20. Then the cover glass was mounted onto a slide glass using a drop of mounting solution and sealed with nail polish for confocal fluorescence microscopy. Fluorescence images were taken either on a Zeiss LSM 510 confocal microscope (Germany) at 63× objective or on a Nikon C1Si confocal microscope at 40× objective.

The next data set concerns JAR cells. The data set is described as above. Type of data set: cell-based, human. Conditions: 2 μM, 24 h, without FBS, 40× objective. How it is done:
as §5, §6

For another data set, the system named is HeLa cells. The data set is described as above. In kind it is cell-based, human. On the procedure:
as §5, §6

In another data set the test system is mismatch DNA. The experiment in a line: Binding affinity for DNA: Tm between PNA and mismatch DNA (UV absorbance at 260 nm). Conditions: for decreases in Tm with single base mismatches: single base mismatch versus complementary DNA. How it is done:
as §1, §2, §3, §4

Where [1] appears, read: 5 μM, 1, 2, 3 and 24 h, without FBS, 63× objective.

Several values for one entry are separate records, joined by “and”; a condition that tells them apart may be missing. Equal values may be shown once. {L(1)} = linker L(1) as defined below the publication's; {Fam} = fluorescein (FAM) label at the N-terminus; {Lys-NH2} = C-terminal lysine amide

As for “TGC-TAC(1O3)-TAC-TG-Lys-NH2 (TGCTACTACTG; modified PNA, monomer codes such as C(1O3), A(5) undefined, C-terminal Lys-NH2, further chemistry not given here) [Oligo 4, modified PNA oligomer]”, in the data set on complementary DNA, the “Tm between PNA and complementary DNA” value came out at 61 °C. The same measure, in the same setting: to “CA(3)T-A(3)GT-A(3)TA-A(3)GT-NH2 (CATAGTATAAGT; chemistry not fully specified) [Oligo 12]” belongs 60 °C; to “CAT-AGT-ATA-AGT-NH2 (CATAGTATAAGT; chemistry not fully specified) [Oligo 27, unmodified PNA oligomer, reference compound]”, 55 °C. With “GC(2O2)A-C(2O2)AT-TTG-C(2O2)CT-NH2 (GCACATTTGCCT; chemistry not fully specified) [Oligo 9]”, the “inhibition of ribosomal synthesis of mdm2” value with mdm2 (5 μM) and with mdm2 (10 μM) was “significantly inhibited” each time. Turning to “CA(2O2)T-A(2O2)GT-A(2O2)TA-A(2O2)GT-NH2 (CATAGTATAAGT; chemistry not fully specified) [Oligo 18, modified PNA oligomer]”, in the data set with complementary DNA, the “Tm between PNA and complementary DNA” value was 66 °C. Same read-out and setting: to “CA(5)T-A(5)GT-A(5)TA-A(5)GT-NH2 (CATAGTATAAGT; chemistry not fully specified) [Oligo 14, modified PNA oligomer]” belongs 69 °C. On to “Fam-L(2)-TG(5)G-C(1O2)AA-C(1O2)TG-A(5)T-Lys-NH2 (TGGCAACTGAT; Fam-L(2) label, modified PNA, Lys-NH2, chemistry not fully specified) [Oligo 21, fluorescein-tagged modified PNA oligomer]”, for which the “cell penetration, fluorescence intensity” value in the data set with A549 cells is given as “fluorescence intensity is strong”; with JAR cells, “fluorescence intensity is strong”; in the data set with HeLa cells (2 μM, 12 h, without FBS, 40× objective), “fluorescence intensity is apparent”; in the data set with HeLa cells (2 μM, 24 h, without FBS, 40× objective), “significantly stronger than that in FIG. 7(e)”.

In the case of “CA(7)T-A(7)GT-A(7)TA-A(7)GT-NH2 (CATAGTATAAGT; chemistry not fully specified) [Oligo 15, modified PNA oligomer]”, in the data set with complementary DNA, the “Tm between PNA and complementary DNA” value worked out at 71 °C. For the substance “CA(5)T-A(5)GT-A(5)TA-A(5)GT-Lys-NH2 (CATAGTATAAGT; modified PNA, C-terminal Lys-NH2, chemistry not fully specified) [Oligo 17, modified PNA oligomer]”, the “Tm between PNA and complementary DNA” value in the data set with complementary DNA was 72 °C. For the same substance, the “Tm between PNA and mismatch DNA” value in the data set on mismatch DNA (mismatch (T → A), DNA ACT-TAA-ACT-ATG) is 59 °C; with mismatch DNA (mismatch (T → C), DNA ACT-TAC-ACT-ATG) it was 61 °C; in the data set with mismatch DNA (mismatch (T → G), DNA ACT-TAG-ACT-ATG), 58 °C. The “decreases in Tm with single base mismatches” value in the data set with mismatch DNA was 11˜14 °C. As for “GC(1O2)A-C(1O2)AT-TTG-C(1O2)CT-NH2 (GCACATTTGCCT; chemistry not fully specified) [Oligo 10, modified PNA oligomer]”, the “inhibition of ribosomal synthesis of mdm2” value in the data set with mdm2 (5 μM) and with mdm2 (10 μM) was “significantly inhibited” in each case. For “TGC-TAC-TAC-TG-Lys-NH2 (TGCTACTACTG; all peptide nucleic acid (PNA), 3' {Lys-NH2}) [Oligo 5, unmodified PNA oligomer, reference compound]”, the “Tm between PNA and complementary DNA” value in the data set with complementary DNA was determined as 55 °C. As to “TGC(1O3)-TAC-TAC(1O3)-TG-Lys-NH2 (TGCTACTACTG; modified PNA, C-terminal Lys-NH2, chemistry not fully specified) [Oligo 3, modified PNA oligomer]”, in the data set on complementary DNA, the “Tm between PNA and complementary DNA” value is 65 °C. With “TGC(2O2)-TAC-TAC(2O2)-TG-Lys-NH2 (TGCTACTACTG; modified PNA, monomer codes such as C(1O3), A(5) undefined, C-terminal Lys-NH2, further chemistry not given here) [Oligo 8, modified PNA oligomer]”, in the data set with complementary DNA, the “Tm between PNA and complementary DNA” value was found to be 68 °C.

For the substance “CAT-AGT-ATA-AGT-Lys-NH2 (CATAGTATAAGT; all peptide nucleic acid (PNA), 3' {Lys-NH2}) [Oligo 16, unmodified PNA oligomer, reference compound]”, in the data set with complementary DNA, the “Tm between PNA and complementary DNA” value turned out to be 56 °C. For the substance “Fam-L(2)-CA(5)T-A(4g)GT-A(4g)TA(5)-AGT-Lys-NH2 (CATAGTATAAGT; Fam-L(2) label, modified PNA, Lys-NH2, chemistry not fully specified) [Oligo 24, fluorescein-tagged modified PNA oligomer]”, the “Tm between PNA and complementary DNA” value in the data set on complementary DNA is 70 °C. Take “TG(5)G-C(1O2)AA-C(1O2)TG-A(5)T-Lys-NH2 (TGGCAACTGAT; modified PNA, C-terminal Lys-NH2, chemistry not fully specified) [Oligo 20, modified PNA oligomer]”: in the data set with complementary DNA, the “Tm between PNA and complementary DNA” value was found to be 84 °C. Besides, the “Tm between PNA and mismatch DNA” value in the data set with mismatch DNA (mismatch (G → A), DNA ATC-AAT-TGC-CA) was 65 °C; in the data set on mismatch DNA (mismatch (G → T), DNA ATC-ATT-TGC-CA), 62 °C. In addition, in the data set with mismatch DNA, the “decreases in Tm with single base mismatches” value was 19˜22 °C. For “GCA-CAT-TTG-CCT-Lys-NH2 (GCACATTTGCCT; all peptide nucleic acid (PNA), 3' {Lys-NH2}) [Oligo 11, unmodified PNA oligomer, reference compound]”, the “Tm between PNA and complementary DNA” value with complementary DNA was 58 °C and 59 °C. Regarding “Fam-L(1)L(1)-TGC-TAC-TAC-TG-Lys-NH2 (TGCTACTACTG; all peptide nucleic acid (PNA), 5' {Fam}-{L(1)}-{L(1)}, 3' {Lys-NH2}) [Oligo 2, fluorescein-tagged 'unmodified' PNA oligomer, reference compound]”, the “cell penetration, fluorescence intensity” value with HeLa cells (setting [1]) is “fluorescence intensity is faint”. For “CA(4)T-A(4)GT-A(4)TA-A(4)GT-NH2 (CATAGTATAAGT; PNA-like chain with modified monomers A(5)/A(4), C-terminal amide, codes undefined, further chemistry not given here) [Oligo 13, modified PNA oligomer]”, the “Tm between PNA and complementary DNA” value in the data set with complementary DNA was 64 °C.

For “Fam-L(1)L(1)-TGC(1O3)-TAC(1O3)-TAC(1O3)-TG-Lys-NH2 (TGCTACTACTG; Fam-L(1)L(1) N-term, Lys-NH2, modified PNA, chemistry not fully specified) [Oligo 1, fluorescein-tagged modified PNA oligomer]”, the “cell penetration, fluorescence intensity” value in the data set with HeLa cells (1 μM, 6 or 24 h, with 1% FBS, 40× objective) was “fluorescence intensity is faint even at 24 h”; with HeLa cells (setting [1]), “fluorescence intensity is clear and becomes intense over 24 h”.
